Experiments:
[1] = system: HBV polymerase; experiment: Inhibitory effect on the in vitro activities of HBV polymerase in reverse transcription (ELISA-type); format: biochemical
Source text: The present inventors submitted application for a patent concerning HBV polymerase genetically expressed in and separated from E. coli, the process of its preparation, and the method to measure the enzyme activities (KR 94-3918, KR 96-33998). In the present experiments HBV polymerase was used which had been expressed in E. coli as stated above.
The method used in the present invention to measure in vitro reverse transcribing activities of HBV polymerase is as follows. Basic principles are the same as those for ELISA, nucleotides with biotin- or digoxigenin- group are included as substrates and anti-DIG antibodies attached to peroxidase enzyme recognize the polymerized substrates.
To the wells coated with streptavidin, 20 μl of HBV polymerase, 20 μl of reaction mixture (10 μM each of DIG-UTP and Biotin-UTP, 46 mM Tris-HCl, 266 mM KCl, 27.5 mM MgCl2, 9.2 mM DTT substrate/primer hybrid), and 20 μl of test compound (added to […]) were added and allowed to react at 22° C. for 15 hrs. During this reaction, HBV polymerase catalyzes DNA synthesis, and digoxigenin and biotin attached to nucleotides form bonds to streptavidin coated on the bottom of wells. When the reaction was done, each well was washed with 250 μl of cleaning buffer (pH 7.0) for 30 seconds, which was repeated five times to remove remaining impurities. 200 μl of anti-DIG-POD antibody was added to each well and allowed to react for 1 hr at 37° C., and the wells were washed with cleaning buffer to remove impurities. 200 μl each of ABTS™, a substrate of peroxidase, was then added and allowed to react at room temperature for 30 min. Absorbancy was measured at 405 nm using ELISA reader.
The inhibitory effects in HBV polymerase activities for reverse transcription were calculated using the group without test compound as a control and the results are shown in Table 1 as follows.

[2] = molecular target: T1, HIV reverse transcriptase (Human immunodeficiency virus type 1 group M subtype B, UniProt P04585); experiment: Inhibitory effect on the in vitro HIV reverse transcriptase activity (non-radioactive RT assay kit); format: biochemical; settings: for inhibition at 0.1 µg/mL: 0.1 μg/ml; for inhibition at 1 µg/mL: 1 μg/ml
T1 construct: purchased Boehringer Mannheim
Protocol: Non-radioactive reverse transcriptase assay kit (Boehringer Mannheim) was used in the measurement of in vitro transcriptase activities. 20 μl (40 ng) of HIV reverse transcriptase and 20 μl of reaction mixture containing matrix-primer hybrid poly(A)oligo(dT)15, DIG(digoxigenin)-dUTP, biotin-dUTP, dTTP were added to wells coated with streptavidin, and the test compounds prepared were also added at the final concentrations of 0.1 and 1 μ/ml and allowed to react at 37° C. for 1 hr. At this time, DNA is formed from RNA by the action of HIV reverse transcriptase, forming bonds with streptavidin coated on the bottom of wells through digoxigenin and biotin moieties attached to nucleotides.
When the reaction was completed, each well was washed with 250 μl of washing buffer (pH 7.0) for 30 sec. five times to remove remaining impurities. 200 μl of anti-DIG-POD […] was added to each well, then the mixture was allowed to react at 37° C. for 1 hr and washed as above to remove impurities. 200 μl of ABTS™, a substrate for peroxidase, was added to each well and the mixture was allowed to react at room temperature for 30 min. Absorbance at 405 nm was measured for each solution using ELISA reader to determine the inhibitory effect on the HIV reverse transcriptase activities. The percentage of inhibition in the activity of HIV reverse transcriptase was calculated using the group without test compound as control and the results are represented in Table 3.

SMILES: CNC(=O)c1ccc(C)nc1Nc1ccc2cn[nH]c2c1 [Example 7, 2-(1H-6-indazolylamino)-6-methyl-N-methylnicotinamide]
- Inhibitory activity on HBV-RT (%) ([1]; 0.01 μg/ml): 21%
- Inhibitory activity on HBV-RT (%) ([1]; 0.1 μg/ml): 50%
- Inhibitory activity on HBV-RT (%) ([1]; 1 μg/ml): 70%

SMILES: Cc1ccc(C(=O)NC2CC2)c(Nc2ccc3cn[nH]c3c2)n1 [Example 11, N-cyclopropyl-2-(1H-6-indazolylamino)-6-methylnicotinamide]
- Inhibitory activity on HBV-RT (%) ([1]; 0.01 μg/ml): 32%
- Inhibitory activity on HBV-RT (%) ([1]; 0.1 μg/ml): 54%
- Inhibitory activity on HBV-RT (%) ([1]; 1 μg/ml): 84%
- inhibition at 0.1 µg/mL [2]: 45%
- inhibition at 1 µg/mL [2]: 82%

SMILES: Cc1ccc(C(=O)NC(C)C)c(Nc2ccc3cn[nH]c3c2)n1 [Example 8, 2-(1H-6-indazolylamino)-N-isopropyl-6-methylnicotinamide]
- Inhibitory activity on HBV-RT (%) ([1]; 0.01 μg/ml): 23%
- Inhibitory activity on HBV-RT (%) ([1]; 0.1 μg/ml): 54%
- Inhibitory activity on HBV-RT (%) ([1]; 1 μg/ml): 78%
- inhibition at 0.1 µg/mL [2]: 28%
- inhibition at 1 µg/mL [2]: 65%

SMILES: Cc1ccc(C(=O)N(N)C(=O)c2cccnc2)c(Nc2ccc3cn[nH]c3c2)n1 [Example 22, 2-(1H-6-indazolylamino)-6-methyl-N-(3-pyridylcarbonyl)-3-pyridinecarbohydrazide]
- Inhibitory activity on HBV-RT (%) ([1]; 0.01 μg/ml): 26%
- Inhibitory activity on HBV-RT (%) ([1]; 0.1 μg/ml): 54%
- Inhibitory activity on HBV-RT (%) ([1]; 1 μg/ml): 85%

SMILES: Cc1ccc(C(=O)NCCN2CCOCC2)c(Nc2ccc3cn[nH]c3c2)n1 [Example 14, 2-(1H-6-indazolylamino)-6-methyl-N-[2-(4-morpholinyl)ethyl]nicotinamide]
- Inhibitory activity on HBV-RT (%) ([1]; 0.01 μg/ml): 52%
- Inhibitory activity on HBV-RT (%) ([1]; 0.1 μg/ml): 68%
- Inhibitory activity on HBV-RT (%) ([1]; 1 μg/ml): 91%
- inhibition at 0.1 µg/mL [2]: 41%
- inhibition at 1 µg/mL [2]: 70%

SMILES: Cc1ccc(C(=O)NC(C)C)c(Nc2ccc3[nH]ncc3c2)n1 [Example 1, 2-(1H-5-indazolylamino)-N-isopropyl-6-methylnicotinamide]
- Inhibitory activity on HBV-RT (%) ([1]; 0.01 μg/ml): 30%
- Inhibitory activity on HBV-RT (%) ([1]; 0.1 μg/ml): 49%
- Inhibitory activity on HBV-RT (%) ([1]; 1 μg/ml): 78%
- inhibition at 0.1 µg/mL [2]: 42%
- inhibition at 1 µg/mL [2]: 75%

SMILES: Cc1ccc(C(=O)NN2CCOCC2)c(Nc2ccc3cn[nH]c3c2)n1 [Example 16, 2-(1H-6-indazolylamino)-6-methyl-N-(4-morpholinyl)nicotinamide]
- Inhibitory activity on HBV-RT (%) ([1]; 0.01 μg/ml): 35%
- Inhibitory activity on HBV-RT (%) ([1]; 0.1 μg/ml): 51%
- Inhibitory activity on HBV-RT (%) ([1]; 1 μg/ml): 78%

SMILES: Cc1ccc(C(=O)Nc2cccnc2)c(Nc2ccc3cn[nH]c3c2)n1 [Example 18, 2-(1H-6-indazolylamino)-6-methyl-N-(3-pyridyl)nicotinamide]
- Inhibitory activity on HBV-RT (%) ([1]; 0.01 μg/ml): 18%
- Inhibitory activity on HBV-RT (%) ([1]; 0.1 μg/ml): 40%
- Inhibitory activity on HBV-RT (%) ([1]; 1 μg/ml): 69%

SMILES: Cc1ccc(C(=O)N2CCOCC2)c(Nc2ccc3cn[nH]c3c2)n1 [Example 23, 2-(1H-6-indazolylamino)-6-methyl-3-(4-morpholinylcarbonyl)pyridine]
- Inhibitory activity on HBV-RT (%) ([1]; 0.01 μg/ml): 12%
- Inhibitory activity on HBV-RT (%) ([1]; 0.1 μg/ml): 40%
- Inhibitory activity on HBV-RT (%) ([1]; 1 μg/ml): 62%

SMILES: Cc1ccc(C(=O)NCCN(C)C)c(Nc2ccc3cn[nH]c3c2)n1 [Example 12, N-[2-(dimethylamino)ethyl]-2-(1H-6-indazolylamino)-6-methylnicotinamide]
- Inhibitory activity on HBV-RT (%) ([1]; 0.01 μg/ml): 49%
- Inhibitory activity on HBV-RT (%) ([1]; 0.1 μg/ml): 60%
- Inhibitory activity on HBV-RT (%) ([1]; 1 μg/ml): 86%

SMILES: Cc1ccc(C(=O)NCCCn2ccnc2)c(Nc2ccc3cn[nH]c3c2)n1 [Example 20, N-[3-(1H-1-imidazolyl)propyl]-2-(1H-6-indazolylamino)-6-methylnicotinamide]
- Inhibitory activity on HBV-RT (%) ([1]; 0.01 μg/ml): 47%
- Inhibitory activity on HBV-RT (%) ([1]; 0.1 μg/ml): 59%
- Inhibitory activity on HBV-RT (%) ([1]; 1 μg/ml): 88%
- inhibition at 0.1 µg/mL [2]: 47%
- inhibition at 1 µg/mL [2]: 88%

SMILES: Cc1ccc(C(=O)N(N)c2ccccn2)c(Nc2ccc3cn[nH]c3c2)n1 [Example 21, 2-(1H-6-indazolylamino)-6-methyl-N-(2-pyridyl)-3-pyridinecarbohydrazide]
- Inhibitory activity on HBV-RT (%) ([1]; 0.01 μg/ml): 30%
- Inhibitory activity on HBV-RT (%) ([1]; 0.1 μg/ml): 50%
- Inhibitory activity on HBV-RT (%) ([1]; 1 μg/ml): 86%
- inhibition at 0.1 µg/mL [2]: 49%
- inhibition at 1 µg/mL [2]: 75%

SMILES: Cc1ccc(C(=O)NC(C)(C)C)c(Nc2ccc3cn[nH]c3c2)n1 [Example 9, N-(t-butyl)-2-(1H-6-indazolylamino)-6-methylnicotinamide]
- Inhibitory activity on HBV-RT (%) ([1]; 0.01 μg/ml): 20%
- Inhibitory activity on HBV-RT (%) ([1]; 0.1 μg/ml): 48%
- Inhibitory activity on HBV-RT (%) ([1]; 1 μg/ml): 65%

SMILES: Cc1ccc(C(=O)NCc2cccnc2)c(Nc2ccc3cn[nH]c3c2)n1 [Example 19, 2-(1H-6-indazolylamino)-6-methyl-N-(3-pyridylmethyl)nicotinamide]
- Inhibitory activity on HBV-RT (%) ([1]; 0.01 μg/ml): 32%
- Inhibitory activity on HBV-RT (%) ([1]; 0.1 μg/ml): 48%
- Inhibitory activity on HBV-RT (%) ([1]; 1 μg/ml): 76%

SMILES: Cc1ccc(C(=O)N[C@H]2CC[C@H](O)CC2)c(Nc2ccc3[nH]ncc3c2)n1 [Example 3, N-(Trans-4-hydroxy-1-cyclohexyl)-2-(1H-5-indazolylamino)-6-methylnicotinamide]
- Inhibitory activity on HBV-RT (%) ([1]; 0.01 μg/ml): 53%
- Inhibitory activity on HBV-RT (%) ([1]; 0.1 μg/ml): 61%
- Inhibitory activity on HBV-RT (%) ([1]; 1 μg/ml): 80%
- inhibition at 0.1 µg/mL [2]: 51%
- inhibition at 1 µg/mL [2]: 80%

SMILES: Cc1ccc(C(=O)NCCN2CCCCC2)c(Nc2ccc3cn[nH]c3c2)n1 [Example 15, 2-(1H-6-indazolylamino)-6-methyl-N-[2-(1-piperidinyl)ethyl]nicotinamide]
- Inhibitory activity on HBV-RT (%) ([1]; 0.01 μg/ml): 12%
- Inhibitory activity on HBV-RT (%) ([1]; 0.1 μg/ml): 57%
- Inhibitory activity on HBV-RT (%) ([1]; 1 μg/ml): 87%
- inhibition at 0.1 µg/mL [2]: 43%
- inhibition at 1 µg/mL [2]: 78%

SMILES: Cc1ccc(C(=O)NCCO)c(Nc2ccc3cn[nH]c3c2)n1 [Example 10, N-(2-hydroxyethyl)-2-(1H-6-indazolylamino)-6-methylnicotinamide]
- Inhibitory activity on HBV-RT (%) ([1]; 0.01 μg/ml): 48%
- Inhibitory activity on HBV-RT (%) ([1]; 0.1 μg/ml): 62%
- Inhibitory activity on HBV-RT (%) ([1]; 1 μg/ml): 89%

SMILES: Cc1ccc(C(=O)NCc2cccnc2)c(Nc2ccc3[nH]ncc3c2)n1 [Example 5, 2-(1H-5-indazolylamino)-6-methyl-N-(3-pyridylmethyl)nicotinamide]
- Inhibitory activity on HBV-RT (%) ([1]; 0.01 μg/ml): 37%
- Inhibitory activity on HBV-RT (%) ([1]; 0.1 μg/ml): 43%
- Inhibitory activity on HBV-RT (%) ([1]; 1 μg/ml): 65%
- inhibition at 0.1 µg/mL [2]: 38%
- inhibition at 1 µg/mL [2]: 69%

SMILES: CCN(CC)CCNC(=O)c1ccc(C)nc1Nc1ccc2cn[nH]c2c1 [Example 13, N-[2-(diethylamino)ethyl]-2-(1H-6-indazolylamino)-6-methylnicotinamide]
- Inhibitory activity on HBV-RT (%) ([1]; 0.01 μg/ml): 15%
- Inhibitory activity on HBV-RT (%) ([1]; 0.1 μg/ml): 45%
- Inhibitory activity on HBV-RT (%) ([1]; 1 μg/ml): 54%

SMILES: Cc1ccc(C(=O)NN2CCN(C)CC2)c(Nc2ccc3cn[nH]c3c2)n1 [Example 17, 2-(1H-6-indazolylamino)-6-methyl-N-(4-methyl-1-piperazinyl)nicotinamide]
- Inhibitory activity on HBV-RT (%) ([1]; 0.01 μg/ml): 24%
- Inhibitory activity on HBV-RT (%) ([1]; 0.1 μg/ml): 56%
- Inhibitory activity on HBV-RT (%) ([1]; 1 μg/ml): 86%
- inhibition at 0.1 µg/mL [2]: 50%
- inhibition at 1 µg/mL [2]: 84%

SMILES: Cc1ccc(C(=O)Nc2cccnc2)c(Nc2ccc3[nH]ncc3c2)n1 [Example 4, 2-(1H-5-indazolylamino)-6-methyl-N-(3-pyridyl)nicotinamide]
- Inhibitory activity on HBV-RT (%) ([1]; 0.01 μg/ml): 50%
- Inhibitory activity on HBV-RT (%) ([1]; 0.1 μg/ml): 64%
- Inhibitory activity on HBV-RT (%) ([1]; 1 μg/ml): 92%
- inhibition at 0.1 µg/mL [2]: 40%
- inhibition at 1 µg/mL [2]: 64%

SMILES: Cc1ccc(C(=O)NN2CCOCC2)c(Nc2ccc3[nH]ncc3c2)n1 [Example 2, 2-(1H-5-indazolylamino)-6-methyl-N-(4-morpholinyl)nicotinamide]
- Inhibitory activity on HBV-RT (%) ([1]; 0.01 μg/ml): 42%
- Inhibitory activity on HBV-RT (%) ([1]; 0.1 μg/ml): 57%
- Inhibitory activity on HBV-RT (%) ([1]; 1 μg/ml): 88%
- inhibition at 0.1 µg/mL [2]: 49%
- inhibition at 1 µg/mL [2]: 84%

SMILES: Cc1ccc(C(=O)NCCc2ccccn2)c(Nc2ccc3[nH]ncc3c2)n1 [Example 6, 2-(1H-5-indazolylamino)-6-methyl-N-(2-pyridylethyl)nicotinamide]
- Inhibitory activity on HBV-RT (%) ([1]; 0.01 μg/ml): 40%
- Inhibitory activity on HBV-RT (%) ([1]; 0.1 μg/ml): 55%
- Inhibitory activity on HBV-RT (%) ([1]; 1 μg/ml): 84%
- inhibition at 0.1 µg/mL [2]: 45%
- inhibition at 1 µg/mL [2]: 77%

From US6608058B2, “6-methylnicotinamide derivatives as antiviral agents” (Dong Wha Pharm. Ind. Co., Ltd., priority 2000, dated 2003)
